One series deals with VERO cells. In words: Cytotoxicity assay in VERO cells (MTT). In kind it is cell-based. The conditions noted are these: Chlorocebus sabaeus, 72 h. The method, then:
The in vitro evaluations of compounds toxicity by MTT in VERO cells were performed as described in brief: VERO cells culture in DMEM, BSF 10%, were counted in suspension, seeded at 2 × 10^4 cells/well (100 μL) into a 96-well microplate, and incubated at 37 °C in a humidified 5% CO2 incubator for 24 h. After the incubation period, compounds were added in different concentrations: 50, 100, 150, 200, and 500 μM. The plate was incubated for 72 h in the same conditions. Then, 5 mg mL^−^1 of 3-(4,5-dimethylthiazol-2-yl)-2,5-diphenyl tetrazolium bromide (MTT) was added and incubated in darkness for 4 h. After this time, DMSO was added and the plate was read at 540 nm in a spectrophotometer Synergy HT (Biotek). The test was carried out in triplicate including untreated cells and reference drug controls.

Series [1] deals with T. cruzi epimastigotes (Y strain). In words: Trypanocidal activity, proliferation of T. cruzi epimastigotes (MTT). The conditions noted are these: Trypanosoma cruzi, 96 h, read-out: %ITcP: T. cruzi (epimastigotes) % inhibition proliferation. Type of series: cell-based. As for the experimental part:
The trypanocidal activity of compounds 7–39 was evaluated on the viability of T. cruzi epimastigotes (Y Strain). Parasites were cultivated in LIT medium supplemented with 10% FBS. The MTT method was used with minor modifications. Next, 2 × 10^6 parasites/mL were seeded in a 96-well plate, adding 50 μM of each derivative dissolved in DMSO (final concentration remained below 1%). The plate was incubated for 96 h at 29 °C. Then, 5 mg mL^−^1 of 3-(4,5-dimethylthiazol-2-yl)-2,5-diphenyl tetrazolium bromide (MTT) was added and incubated in darkness for 4 h. After this time, acidic isopropanol (4N) was added and the plate was read at 540 nm in a spectrophotometer Synergy HT (Biotek). Benznidazole (50 µM) was used as a reference drug.

A further series deals with P. berghei ANKA. In words: Four-day suppressive test in P. berghei-infected mice. In kind it is in vivo, Plasmodium berghei (male Balb-C mice). As for the experimental part:
Male Balb-C mice with a weight of 18–22 g were fed with a commercial diet ad libitum under standard procedures of animal care following the aforementioned method approved by the Ethics Committee of the Institute of Immunology. The animals were infected with a rodent malaria strain of Plasmodium berghei ANKA. A million infected erythrocytes, in phosphate-buffered saline solution (PBS, 10 mM, pH 7.4, 0.1 mL), were inoculated ip to infect the animal. The parasitemia was inspected by continuous microscopic examination of Giemsa-stained smears.
One million P. berghei, injected in the caudal vein i.v, were used to infect the mice (n = 6). After two hours of inoculation, the compounds that were active in vitro were dissolved in DMSO (0.1 M) and subsequently diluted with Saline-Tween 20 solution (2%), and administered ip for 4 days (20 mg kg^−^1). The parasite load was evaluated on the fourth day by examining Giemsa-stained smears. Chloroquine (20 mg kg^−^1) was used as the positive control and saline solution as the negative control. Non-treated mice were used as a baseline control for survival times. The survival days and percentage of parasitemia were used to express the results.

For the next series, the system named is β-hematin formation. Nature of the series: Inhibition of β-hematin formation in vitro. Type of series: biochemical. The method, then: The assay was performed according to previously reported protocols. Hemin chloride (50 μL, 4 mM) in DMSO (5.2 mg mL^−1) was pipetted into 96-well microplates. Different concentrations (0.1–100 mM) of the compounds in DMSO were added in triplicate (50 μL) with a final concentration of 0.025 mM–25 mM/well. Water (50 μL) or DMSO (50 μL) were used as controls. […] Next, the plates were incubated at 37 °C for 48 h and subsequently centrifuged (4000 rpm × 15 min). The supernatant was washed twice with DMSO (200 μL) and resuspended in NaOH (200 μL, 0.2 N). The solubilized products were diluted (1:2) with NaOH (0.1 N), and the plates were read in an ELISA reader at 405 nm (Microplate Reader, BIORAD-550). The results are expressed as % IβHF.

Several values for one entry are separate records, joined by “and”; a condition that tells them apart may be missing. Identical values can stand only once.

For the compound `O=C1/C(=C/c2ccc(OCc3ccccc3)cc2)Cc2ccc(Cl)cc21` [compound 29, (E)-2-[4-(Benzyloxy)benzylidene]-6-chloro-2,3-dihydroinden-1-one], the melting point (usually the temperature of the solid-liquid transition) was in the range of 186 to 187 °C. In the case of `O=C1/C(=C/c2ccc(SCc3ccccc3)cc2)Cc2cc(F)cc(F)c21` [compound 19, (E)-2-[4-(Benzylthio)benzylidene]-5,7-difluoro-2,3-dihydroinden-1-one], the melting point fell in the range of 170 to 172 °C. Besides, in the series with VERO cells, the IC50 (usually the midpoint of a concentration-inhibition curve) was > 150 µM. With `COc1ccc2c(c1)C/C(=C\c1ccc(OCc3ccccc3)cc1)C2=O` [compound 21, (E)-2-[4-(Benzyloxy)benzylidene]-2,3-dihydro-5-methoxyinden-1-one], the melting point was in the range of 141 to 142 °C. Consider `O=C1/C(=C/c2ccc(SCc3ccccc3)cc2)CCc2ccccc21` [compound 32, (E)-2-[4-(Benzylthio)benzylidene]-3,4-dihydronaphthalen-1(2H)-one], for which the melting point was in the range of 99 to 100 °C. For the same compound, the IC50 in the series with VERO cells was > 150 µM. Also, the inhibition at 50 µM in series [1] amounted to 43.7 ± 6.7%. Compound `COc1ccc(OC)c2c1C/C(=C\c1ccc(OCc3ccccc3)cc1)C2=O` [compound 25, (E)-2-[4-(Benzyloxy)benzylidene]-2,3-dihydro-4,7-dimethoxyinden-1-one] yielded a melting point of 209 to 210 °C.

As to `Cc1cccc2c1C/C(=C\c1ccc(SCc3ccccc3)cc1)C2=O` [compound 15, (E)-2-[4-(Benzylthio)benzylidene]-2,3-dihydro-4-methylinden-1-one], the melting point fell in the range of 167 to 169 °C.

Take `COc1cc2c(c(OC)c1)C(=O)/C(=C/c1ccc(SCc3ccccc3)cc1)C2` [compound 13, (E)-2-[4-(Benzylthio)benzylidene]-2,3-dihydro-5,7-dimethoxyinden-1-one]: the melting point is 176 to 178 °C. In the case of `CCN(CC)CCCC(C)Nc1ccnc2cc(Cl)ccc12` (stereo not shown) [CQ, chloroquine, reference compound], in the series with P. berghei ANKA (20 mg kg−1 ip once daily, days 1–4 post-infection, n = 6), the “Sd: Survival days (± SEM)” value is 28 ± 1.34 days and 28 ± 1.3 days. Further, in the series with P. berghei ANKA (fourth day post-infection, 20 mg kg−1 ip once daily for 4 days, n = 6), the “%P: Percentage of parasitemia (± SEM)” value was 1.4 ± 0.54%. The Survival in the series with P. berghei ANKA (surviving mice/total, 20 mg kg−1 ip for 4 days) is 5/6. The “%IβHF: Percentage inhibition β-hematin formation” value in the series with β-hematin formation (concentration of 10 μM) was 95.34%. The IC50 with β-hematin formation (n = 3, read-out: IC50 (βHF) inhibition of β-hematin formation (± SEM)) is 180 ± 100 nM.

Consider `O=C1/C(=C/c2ccc(SCc3ccccc3)cc2)Cc2ccccc21` [compound 7, (E)-2-[4-(Benzylthio)benzylidene]-2,3-dihydroinden-1-one], for which the melting point fell in the range of 155 to 157 °C. The same measure, in the same setting: for `O=C1/C(=C/c2ccc(OCc3ccccc3)cc2)Cc2ccccc21` [compound 20, (E)-2-[4-(Benzyloxy)benzylidene]-2,3-dihydroinden-1-one] the value was 170 °C; for `Cc1cccc2c1C/C(=C\c1ccc(OCc3ccccc3)cc1)C2=O` [compound 27, (E)-2-[4-(Benzyloxy)benzylidene]-2,3-dihydro-4-methylinden-1-one], 127 to 129 °C. Regarding `COc1cccc2c1CC/C(=C\c1ccc(SCc3ccccc3)cc1)C2=O` [compound 33, (E)-2-[4-(Benzylthio)benzylidene]-3,4-dihydro-5-methoxynaphthalen-1(2H)-one], the 50% inhibitory concentration (IC50) in the series on VERO cells is > 150 µM. The inhibition at 50 µM in series [1] is 51.1 ± 3.4%. `COc1ccc2c(c1OC)C/C(=C\c1ccc(OCc3ccccc3)cc1)C2=O` [compound 23, (E)-2-[4-(Benzyloxy)benzylidene]-2,3-dihydro-4,5-dimethoxyinden-1-one]: the melting point was 167 to 168 °C. On the same count and under the same terms, for `COc1ccc2c(c1)C(=O)/C(=C/c1ccc(OCc3ccccc3)cc1)C2` [compound 22, (E)-2-[4-(Benzyloxy)benzylidene]-2,3-dihydro-6-methoxyinden-1-one] the value was 178 to 179 °C; for `O=C1/C(=C/c2ccc(OCc3ccccc3)cc2)Cc2cc(Cl)ccc21` [compound 28, (E)-2-[4-(Benzyloxy)benzylidene]-5-chloro-2,3-dihydroinden-1-one], 189 to 190 °C. `O=C1/C(=C/c2ccc(OCc3ccccc3)cc2)Cc2c(Cl)cc(Cl)cc21` [compound 30, (E)-2-[4-(Benzyloxy)benzylidene]-4,6-dichloro-2,3-dihydroinden-1-one] gave a melting point of 202 to 203 °C. Still for that read-out and setting: in the case of `O=C1/C(=C/c2ccc(OCc3ccccc3)cc2)Cc2cc(F)cc(F)c21` [compound 31, (E)-2-[4-(Benzyloxy)benzylidene]-5,7-difluoro-2,3-dihydroinden-1-one] it was 204 to 206 °C. In the case of `O=C(Cn1ccnc1[N+](=O)[O-])NCc1ccccc1` [Bnz, benznidazole, reference compound], the IC50 with VERO cells is > 200 µM. Besides, the inhibition at 50 µM in series [1] worked out at 60 ± 2.9%. For `O=C1/C(=C/c2ccc(SCc3ccccc3)cc2)Cc2cc(Cl)ccc21` [compound 16, (E)-2-[4-(Benzylthio)benzylidene]-5-chloro-2,3-dihydroinden-1-one], the melting point fell in the range of 140 to 142 °C. On the same count and under the same terms, for `O=C1/C(=C/c2ccc(SCc3ccccc3)cc2)Cc2cc3c(cc21)OCO3` [compound 14, (E)-2-[4-(Benzylthio)benzylidene]-2,3-dihydro-5,6-methylendioxyinden-1-one] the value was 194 to 196 °C. With `COc1ccc2c(c1)C(=O)/C(=C/c1ccc(SCc3ccccc3)cc1)CC2` [compound 35, (E)-2-[4-(Benzylthio)benzylidene]-3,4-dihydro-7-methoxynaphthalen-1(2H)-one], the half-maximal inhibitory concentration (IC50) in the series on VERO cells is > 150 µM. Further, the inhibition at 50 µM in series [1] came to 36.2 ± 6.1%. Consider `COc1ccc2c(c1)C(=O)/C(=C/c1ccc(SCc3ccccc3)cc1)C2` [compound 9, (E)-2-[4-(Benzylthio)benzylidene]-2,3-dihydro-6-methoxyinden-1-one], for which the melting point was in the range of 175 to 177 °C.

With `COc1ccc2c(c1)CC/C(=C\c1ccc(SCc3ccccc3)cc1)C2=O` [compound 34, (E)-2-[4-(Benzylthio)benzylidene]-3,4-dihydro-6-methoxynaphthalen-1(2H)-one], the melting point lay within 122 to 124 °C. Same read-out and setting: for `COc1ccc2c(c1)C/C(=C\c1ccc(SCc3ccccc3)cc1)C2=O` [compound 8, (E)-2-[4-(Benzylthio)benzylidene]-2,3-dihydro-5-methoxyinden-1-one] the value was 166 to 168 °C; for `O=C1/C(=C/c2ccc(SCc3ccccc3)cc2)Cc2ccc(Cl)cc21` [compound 17, (E)-2-[4-(Benzylthio)benzylidene]-6-chloro-2,3-dihydroinden-1-one], 204 °C; for `COc1cc2c(cc1OC)C(=O)/C(=C/c1ccc(OCc3ccccc3)cc1)C2` [compound 24, (E)-2-[4-(Benzyloxy)benzylidene]-2,3-dihydro-5,6-dimethoxyinden-1-one], 207 to 208 °C. The same measure, in the same setting: in the case of `O=C1/C(=C/c2ccc(SCc3ccccc3)cc2)Cc2c(Cl)cc(Cl)cc21` [compound 18, (E)-2-[4-(Benzylthio)benzylidene]-4,6-dichloro-2,3-dihydroinden-1-one] it was 181 to 183 °C.
